Test results taken from ChEMBL document CHEMBL4251597, “Discovery and evolution of aloperine derivatives as a new family of HCV inhibitors with novel mechanism” (Eur J Med Chem, 2018).
Activity calls are given as the source filed them. No cut-off for these calls is given here.

Assays:
Hepatitis C virus [1] = test: Antiviral activity against HCV J6/JFH/JC-1 infected in human Huh7.5 cells assessed as inhibition of viral RNA replication after 72 hrs by qRT-PCR method; assay type: functional, organism-based, Hepacivirus hominis; settings: J6/JFH/JC-1, Huh7.5, 72 h
[2] = Selectivity index, ratio of CC50 for human Huh7.5 cells to EC50 for HCV J6/JFH/JC-1; assay type: toxicity; settings: read-out: Ratio CC50/EC50
[3] = Cytotoxicity against human Huh7.5 cells after 72 hrs by MTT assay; assay type: cell-based
Hepatitis C virus [4] = test: Antiviral activity against HCV J6/JFH/JC-1 infected in human Huh7.5 cells assessed as inhibition of NS3/4A D168V mutant levels at 0.01 to 1 uM treated with fresh media containing compound every 2 days by Western blot method; assay type: functional, organism-based; settings: Hepacivirus hominis
Hepatitis C virus [5] = test: Antiviral activity against HCV J6/JFH/JC-1 infected in human Huh7.5 cells harboring NS3/4A D168V mutant assessed as inhibition of viral core protein levels at 0.01 to 1 uM treated with fresh media containing compound every 2 days by Western blot method; assay type: functional, organism-based; settings: Hepacivirus hominis
[6] = AUC (0 to t) in mouse at 25 mg/kg, po after 0.25 to 6 hrs; assay type: ADME, organism-based; parameters: time upper 6 hr, time lower 0.25 hr, dose 25 mg/kg, route oral; settings: in vivo
[7] = MRT in mouse at 25 mg/kg, po after 0.25 to 6 hrs; assay type: ADME, organism-based; settings: in vivo
[8] = Acute toxicity in po dosed Kunming mouse measured for 7 days; assay type: organism-based; settings: in vivo
[9] = Cmax in mouse at 25 mg/kg, po after 0.25 to 6 hrs; assay type: ADME, organism-based; parameters: dose 25 mg/kg, route oral; settings: in vivo
[10] = Tmax in mouse at 25 mg/kg, po after 0.25 to 6 hrs; assay type: ADME, organism-based; settings: in vivo
[11] = Half life in mouse at 25 mg/kg, po after 0.25 to 6 hrs; assay type: ADME, organism-based; settings: in vivo
Hepatitis C virus [12] = test: Antiviral activity against HCV infected in human GS4.3 cells assessed as inhibition of NS3/4A levels at 0.15 uM treated with fresh media containing compound every 2 days measured after 6 days by Western blot method; assay type: functional, organism-based; settings: Hepacivirus hominis
Hepatitis C virus [13] = test: Antiviral activity against HCV infected in human GS4.3 cells assessed as inhibition of viral core protein levels at 0.15 uM treated with fresh media containing compound every 2 days measured after 6 days by Western blot method; assay type: functional, organism-based; settings: Hepacivirus hominis

| SMILES | EC50 (Hepatitis C virus [1]) | selectivity ratio [2] | CC50 at 72 h [3] | other results |
| --- | --- | --- | --- | --- |
| COC(=O)c1ccc(C(=O)N2CCCC3=C[C@H]4C[C@H](CN5CCCC[C@H]45)[C@@H]32)cc1 | 11.6 µM | 23.4 | 271 µM | – |
| O=S(=O)(c1cccc2nsnc12)N1CCCC2=C[C@H]3C[C@H](CN4CCCC[C@H]34)[C@@H]21 | 5.5 µM | 57.2 | 314 µM | – |
| O=S(=O)(c1ccc2c(c1)CCO2)N1CCCC2=C[C@H]3C[C@H](CN4CCCC[C@H]34)[C@@H]21 | 8.65 µM | 25.1 | 217 µM | – |
| COc1ccc2c(O[C@@H]3C[C@H]4C(=O)N[C@]5(C(=O)NS(=O)(=O)C6CC6)C[C@H]5/C=C/CCCCN(C)C(=O)[C@@H]4C3)cc(-c3nc(C(C)C)cs3)nc2c1C | – | – | – | inhibition (Hepatitis C virus [4]): inactive; inhibition (Hepatitis C virus [5]): inactive |
| N#Cc1ccccc1S(=O)(=O)N1CCCC2=C[C@H]3C[C@H](CN4CCCC[C@H]34)[C@@H]21 | 3.32 µM | 77.1 | 256 µM | – |
| COC(=O)c1ccccc1S(=O)(=O)N1CCCC2=C[C@H]3C[C@H](CN4CCCC[C@H]34)[C@@H]21 | 8.2 µM | 32.8 | 269 µM | – |
| COc1ccc(Cl)cc1S(=O)(=O)N1CCCC2=C[C@H]3C[C@H](CN4CCCC[C@H]34)[C@@H]21 | 1.21 µM | 76.8 | 92.9 µM | – |
| O=S(=O)(c1ccc2c(c1)OCCO2)N1CCCC2=C[C@H]3C[C@H](CN4CCCC[C@H]34)[C@@H]21 | 23.5 µM | > 21.3 | > 500 µM | – |
| COc1ccc(S(=O)(=O)N2CCCC3=C[C@H]4C[C@H](CN5CCCC[C@H]45)[C@@H]32)cc1OC | 6.39 µM | 33.6 | 215 µM | – |
| O=C(O)c1ccc(S(=O)(=O)N2CCCC3=C[C@H]4C[C@H](CN5CCCC[C@H]45)[C@@H]32)cc1 | > 167 µM | – | > 500 µM | – |
| COc1ccc(S(=O)(=O)N2CCCC3=C[C@H]4C[C@H](CN5CCCC[C@H]45)[C@@H]32)cc1C | 4.89 µM | 15 | 73.2 µM | – |
| CC(=O)Nc1ccc(S(=O)(=O)N2CCCC3=C[C@H]4C[C@H](CN5CCCC[C@H]45)[C@@H]32)cc1 | 54.7 µM | 5.64 | 309 µM | – |
| Cc1nc(N)sc1S(=O)(=O)N1CCCC2=C[C@H]3C[C@H](CN4CCCC[C@H]34)[C@@H]21 | 6.03 µM | 34.7 | 209 µM | – |
| NCCS(=O)(=O)N1CCCC2=C[C@H]3C[C@H](CN4CCCC[C@H]34)[C@@H]21 | 2.72 µM | 97.2 | 264 µM | AUC(0-t) [6]: 7.78 µM·h; MRT [7]: 5.96 h; LD50 at 168 h [8]: 750 mg/kg; Cmax [9]: 1450 nM; Tmax [10]: 1.17 h; half-life [11]: 10.2 h |
| COC(=O)c1ccc(S(=O)(=O)N2CCCC3=C[C@H]4C[C@H](CN5CCCC[C@H]45)[C@@H]32)cc1 | 80.6 µM | 3.51 | 283 µM | – |
| N#Cc1ccccc1CN1CCCC2=C[C@H]3C[C@H](CN4CCCC[C@H]34)[C@@H]21 | 1.95 µM | 9.64 | 18.8 µM | – |
| C1=C2CCCN[C@H]2[C@@H]2C[C@H]1[C@H]1CCCCN1C2 | 4.32 µM | 54.5 | 235 µM | – |
| O=C(O)c1ccccc1S(=O)(=O)N1CCCC2=C[C@H]3C[C@H](CN4CCCC[C@H]34)[C@@H]21 | 46.4 µM | > 10.8 | > 500 µM | – |

| SMILES | EC50 (Hepatitis C virus [1]) | selectivity ratio [2] | CC50 at 72 h [3] | other results |
| --- | --- | --- | --- | --- |
| COC(=O)N[C@H](C(=O)N1CCC[C@H]1c1ncc(-c2ccc(-c3ccc(-c4cnc([C@@H]5CCCN5C(=O)[C@@H](NC(=O)OC)C(C)C)[nH]4)cc3)cc2)[nH]1)C(C)C | – | – | – | inhibition (Hepatitis C virus [12]): Active; inhibition (Hepatitis C virus [13]): Active |
| COc1ccc(S(=O)(=O)N2CCCC3=C[C@H]4C[C@H](CN5CCCC[C@H]45)[C@@H]32)cc1 | 6.01 µM | 16.9 | 102 µM | – |
| O=C(O)c1ccc(C(=O)N2CCCC3=C[C@H]4C[C@H](CN5CCCC[C@H]45)[C@@H]32)cc1 | 73.7 µM | > 6.78 | > 500 µM | – |
| CS(=O)(=O)c1ccc(S(=O)(=O)N2CCCC3=C[C@H]4C[C@H](CN5CCCC[C@H]45)[C@@H]32)cc1 | 18.7 µM | 9.97 | 186 µM | – |
| CC(C)Oc1ccc(S(=O)(=O)N2CCCC3=C[C@H]4C[C@H](CN5CCCC[C@H]45)[C@@H]32)cc1 | 1.81 µM | 19.2 | 34.8 µM | – |
| COc1ccc(CN2CCCC3=C[C@H]4C[C@H](CN5CCCC[C@H]45)[C@@H]32)cc1 | 0.96 µM | 86.6 | 83.1 µM | – |
| CC(=O)c1ccc(S(=O)(=O)N2CCCC3=C[C@H]4C[C@H](CN5CCCC[C@H]45)[C@@H]32)cc1 | 5.57 µM | 42.1 | 234 µM | – |
| N#Cc1ccc(S(=O)(=O)N2CCCC3=C[C@H]4C[C@H](CN5CCCC[C@H]45)[C@@H]32)cc1 | 3.4 µM | 78 | 265 µM | AUC(0-t) [6]: 0.77 µM·h; MRT [7]: 1.82 h; Cmax [9]: 410 nM; Tmax [10]: 0.33 h; half-life [11]: 1.97 h |
| O=C1c2ccccc2C(=O)N1CCS(=O)(=O)N1CCCC2=C[C@H]3C[C@H](CN4CCCC[C@H]34)[C@@H]21 | 68.6 µM | > 7.29 | > 500 µM | – |
| CC(=O)Nc1nc(C)c(S(=O)(=O)N2CCCC3=C[C@H]4C[C@H](CN5CCCC[C@H]45)[C@@H]32)s1 | 12.4 µM | 14.7 | 182 µM | – |
| O=S(=O)(c1ccncc1)N1CCCC2=C[C@H]3C[C@H](CN4CCCC[C@H]34)[C@@H]21 | 11.4 µM | 32.6 | 371 µM | – |
| O=S(=O)(c1cccc2cccnc12)N1CCCC2=C[C@H]3C[C@H](CN4CCCC[C@H]34)[C@@H]21 | 7.35 µM | 33.8 | 249 µM | – |
| COc1ccccc1CN1CCCC2=C[C@H]3C[C@H](CN4CCCC[C@H]34)[C@@H]21 | 6.78 µM | 10.2 | 69.3 µM | – |
| COc1cc(C(=O)N2CCCC3=C[C@H]4C[C@H](CN5CCCC[C@H]45)[C@@H]32)cc(OC)c1OC | 28.3 µM | 10.2 | 290 µM | – |
| C1=C2CCCN(Cc3ccncc3)[C@H]2[C@@H]2C[C@H]1[C@H]1CCCCN1C2 | 97.9 µM | > 5.11 | > 500 µM | – |
| COc1ccc(C(=O)N2CCCC3=C[C@H]4C[C@H](CN5CCCC[C@H]45)[C@@H]32)cc1 | 62.5 µM | > 8 | > 500 µM | – |
| O=[N+]([O-])c1ccc(CN2CCCC3=C[C@H]4C[C@H](CN5CCCC[C@H]45)[C@@H]32)cc1 | 3.56 µM | 26.5 | 94.4 µM | – |
| Nc1ccc(S(=O)(=O)N2CCCC3=C[C@H]4C[C@H](CN5CCCC[C@H]45)[C@@H]32)cc1 | 10.7 µM | 26.9 | 288 µM | – |
